Values of other authors as cited in US20200330542A1, “COMPOSITION FOR THE ACUTE AND CHRONIC TREATMENT OF CONSTIPATION” (NEILOS S.R.L., priority 2017, published 2020).

Settings: human, in vivo

## glucomannan
  tolerability: well tolerated without significant side effects
